Reference: PubChem BioAssay AID2765 (Broad Institute, 2010)
Active and inactive are the calls of the source.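 The calls were made as follows: active = half-maximal concentration for the rise in caspase light signal at or below ten times the top tested dose; inconclusive = flat fit between 30% and 70% activity, or unreliable curve fit; inactive = the rest.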

Test system: MEF A1-2A-BIM cells, caspase 3/7 luminescence, 3 h
Test: inducers of caspase signal in A1-dependent MEFs – cell-based, luminescence, retest, A1 inhibitor project, dose response (AID 2765)

Row | Compound | EC50
1 | O=C(Nc1ccc(-c2nc3cc(NC(=O)c4cccs4)ccc3o2)cc1)c1cccs1 | > 35 µM (inactive)
2 | Cc1ccc(Cl)cc1NC(=O)CC1NC2CCCCC2NC1=O (centres undefined) | > 35 µM (inactive)
3 | C=CC[C@@H](CC(=O)N[C@@H](CO)Cc1ccccc1)C(=O)N[C@H](COC(=O)[C@H](CC=C)CC(=O)OC(C)(C)C)Cc1ccccc1 | > 35 µM (inactive)
4 | Cc1cccc(C)c1NC(=O)C(Cl)C(=O)c1ccccc1 (centres undefined) | > 35 µM (inactive)
5 | COc1ccc(CCNC(=O)C2=COCCO2)cc1 | > 35 µM (inactive)
6 | CCOC(=O)C1=C(C)N(C)C(=O)C1CC(=O)O (centres undefined) | > 35 µM (inactive)
7 | Cc1cccc(NC(=O)CCC(=O)N/N=C/c2ccco2)c1C | > 35 µM (inactive)
8 | Cc1ccccc1N=C1NC(=O)C(CO)(CO)S1 | > 35 µM (inactive)
9 | CC(C)(C)OC(=O)NCCc1nnc(S(=O)(=O)Cc2ccc(Cl)cc2Cl)o1 | > 35 µM (inactive)
10 | CCc1ccc2nc(N(CCCN(C)C)C(=O)c3ccc(S(=O)(=O)N4CCc5ccccc5C4)cc3)sc2c1 | > 35 µM (inactive)
11 | CC(O)[C@H](NC(=O)C1(c2ccccc2)CCN(C(=O)OC(C)(C)C)CC1)C(=O)O (some centres undefined) | > 35 µM (inactive)
12 | CS(=O)(=O)c1nc(-c2ccco2)cc(C(F)(F)F)n1 | > 35 µM (inactive)
13 | Cc1ccc(/C=C/C(=O)Nc2sc(C)c(C)c2C(=O)OC(C)C)o1 | > 35 µM (inactive)
14 | C/C(=N\NC(=O)CCC(=O)NCc1ccccc1)c1ccco1 | > 35 µM (inactive)
15 | CC(C)Oc1ccc(C(=O)OCC(=O)NC2CCCCCC2)cc1 | > 35 µM (inactive)
16 | Cc1ccc(OCCC(=O)Nc2ccc(C)c(F)c2)cc1 | > 35 µM (inactive)
17 | Cc1cc(=O)oc2c(C)c(OCC(=O)N3CCN(C(=O)C4COc5ccccc5O4)CC3)ccc12 (centres undefined) | > 35 µM (inactive)
18 | CSc1nc(N)c(N=Nc2ccc([As](=O)(O)O)cc2)c(=O)[nH]1 | > 35 µM (inactive)
19 | N#Cc1c(C(F)(F)F)cc(-c2ccccc2)nc1SCC(=O)Nc1sc2c(c1C#N)CCC2 | > 35 µM (inactive)
20 | CC(C)(C)[C@H](N)C(=O)N[C@H]1CCC2C3CC=C4C[C@@H](O)CC[C@]4(C)C3CC[C@@]21C (some centres undefined) | > 35 µM (inactive)
21 | O=C(CCS(=O)(=O)c1ccccc1)N(CCCN1CCOCC1)c1nc2ccc(F)cc2s1 | > 35 µM (inactive)
22 | CCCCCCC(=O)Nc1cc2c(C)cc(=O)oc2cc1C | > 35 µM (inactive)
23 | CCOC(=O)C1=C(c2ccccc2)O/C(=C(/C#N)C(F)(F)F)S1 | > 35 µM (inactive)
24 | COc1ccccc1OCC(=O)NNC(=O)c1ccc(F)c(S(=O)(=O)N2CCOCC2)c1 | > 35 µM (inactive)

Row | Compound | EC50
25 | Cc1ccc(S(=O)(=O)NCCN2CCOCC2)cc1 | > 35 µM (inactive)
26 | CNC(=O)Nc1ccc(Cn2cc(C(F)(F)F)ccc2=O)cc1 | > 35 µM (inactive)
27 | Cc1ccc(NC(=O)CSc2nnc(C)n2-c2ccccc2)cc1 | > 35 µM (inactive)
28 | Cc1ccc(-c2noc(CSc3nnc(CCc4ccccc4)n3-c3ccccc3)n2)cc1 | > 35 µM (inactive)
29 | O=C(Nc1nc2c(Br)cc(Br)cc2c(=O)s1)c1ccco1 | > 35 µM (inactive)
30 | O=C(NC1CCCc2ccccc21)c1ccccc1OC(F)F (centres undefined) | > 35 µM (inactive)
31 | COc1ccccc1C/C(N)=N/OC(=O)c1cccc([N+](=O)[O-])c1 | > 35 µM (inactive)
32 | Cc1nn(Cc2c(Cl)cccc2Cl)c(C)c1NC(=O)c1cn(-c2ccccc2)nc1-c1ccccc1 | 15.1 µM
33 | COc1ccc(C2Nc3ccc4ccccc4c3-c3c2c(=O)oc2ccccc32)cc1 (centres undefined) | 11 µM
34 | CCS(=O)(=O)c1ncc(Cl)c(C(=O)Nc2ccc(S(=O)(=O)N3CCCC(C)C3)cc2)n1 (centres undefined) | > 35 µM (inactive)
35 | COc1ccc(OC)c(C2C(C(C)=O)=C(O)C(=O)N2Cc2cccnc2)c1 (centres undefined) | > 35 µM (inactive)
36 | CN1C(=O)[C@H]2[C@@H](C3CC3)N3C(=O)CN(Cc4ccc(-c5ccccc5)cc4)C(=O)[C@@]3(C)[C@H]2C1=O | > 35 µM (inactive)
37 | Cc1cccc(/C=C/C(=O)c2ccc([N+](=O)[O-])o2)c1 | > 35 µM (inactive)
38 | N#C/C(=C\c1ccc(N2CCOCC2)o1)c1ccccc1 | > 35 µM (inactive)
39 | COc1ccc(C2CC(c3c(O)cc(C)oc3=O)=NCCS2)c(OC)c1 (centres undefined) | > 35 µM (inactive)
40 | COC(=O)CN(c1ccc(OC)c(OC)c1)S(C)(=O)=O | > 35 µM (inactive)
41 | Cc1cccc(/C=N/NC(=O)c2cc3c(s2)-c2ccccc2CC3)c1 | > 35 µM (inactive)
42 | O=C(/C=C/c1ccc(Cl)c(Cl)c1)NC1=NCCS1 | > 35 µM (inactive)
43 | O=C1ON=C(c2ccc(Cl)cc2)/C1=C/c1ccc(O)cc1 | > 35 µM (inactive)
44 | O=C(NCCCNc1ccc(C(F)(F)F)cc1[N+](=O)[O-])c1ccc(F)cc1 | > 35 µM (inactive)
45 | COc1ccccc1C(=O)N1CCN(Cc2ccc3c(c2)OCO3)CC1 | > 35 µM (inactive)
46 | CC1Cc2ccccc2N1C(=O)c1ccc2c(c1)nnn2C (centres undefined) | > 35 µM (inactive)
47 | COc1ccc(-c2nc(CN3CCN(C(=O)c4ccco4)CC3)c(C)o2)cc1OC | > 35 µM (inactive)
48 | Cc1ccc(-c2csc(N=C(N)N)n2)cc1 | > 35 µM (inactive)

Row | Compound | EC50
49 | O=C(O)c1cc(-c2ccc(Cl)cc2)n(-c2cccc(Cl)c2)n1 | > 35 µM (inactive)
50 | Cc1ccc(S(=O)(=O)n2ccc3c(OCCOCCNCc4ccc(F)cc4)cccc32)cc1 | > 35 µM (inactive)
51 | COc1ccc(-c2oc(=O)c3cc(OC)c(OC)cc3c2/C=C/c2cccc([N+](=O)[O-])c2)cc1 | > 35 µM (inactive)
52 | COc1ccc(/C=C2\SC(=O)N(CCC(=O)N(C)C3CCS(=O)(=O)C3)C2=O)cc1 (centres undefined) | > 35 µM (inactive)
53 | CCOC(=O)CCCCCNC(=O)c1ccc(F)cc1F | > 35 µM (inactive)
54 | COc1ccc(C(=O)Sc2ccc(Cl)cc2)cc1OC | > 35 µM (inactive)
55 | CN(C)C(=O)c1ccc(OCC(F)(F)F)nc1 | > 35 µM (inactive)
56 | CC(C)OC(=O)CN1C(=O)S/C(=C/c2ccc(N3CCCCC3)o2)C1=O | > 35 µM (inactive)
57 | O=S(=O)(Nc1nc2ccccc2nc1Cl)c1ccc(Br)cc1 | > 35 µM (inactive)
58 | O=C(CN1C(=O)c2ccccc2S1(=O)=O)N1CCN(Cc2ccc3c(c2)OCO3)CC1 | > 35 µM (inactive)
59 | CCOc1nc2c(c(-c3cccs3)c1C#N)Cc1ccccc1-2 | > 35 µM (inactive)
60 | CC(=O)OC[C@]12CC[C@H]3[C@@](C)(CC[C@H]4C(C)(C)CCC[C@]34C)[C@@H]1C[C@H](C1=CC(=O)O[C@H]1OC(C)=O)O2 | 3.27 µM
61 | CC1=NNC(=O)/C1=C\c1cn(-c2ccccc2)nc1-c1ccccc1 | 11.8 µM
62 | CCCCCC(=O)N1CCCC1 | > 35 µM (inactive)
63 | CN(C)C/C=C(\c1ccc(Br)cc1)c1cccnc1 | > 35 µM (inactive)
64 | C[C@@H]1CN([C@@H](C)CO)C(=O)c2cc(NS(=O)(=O)c3ccc(Cl)cc3)ccc2O[C@H]1CN(C)Cc1ccncc1 | > 35 µM (inactive)
65 | CCOC(=O)c1ccc(-c2ccc(/C=N/NC(=O)CN(c3cccc(C)c3)S(C)(=O)=O)o2)cc1 | 24 µM
66 | O=C(NCCN1CCN(c2ccccc2)CC1)c1ccc2c(c1)[nH]c(=S)n1c3ccccc3nc21 | > 35 µM (inactive)
67 | CCS(=O)(=O)c1ncc(Cl)c(C(=O)Nc2ccc(S(=O)(=O)N(C)c3ccccc3)cc2)n1 | > 35 µM (inactive)
68 | CCOC(=O)/C=c1\s/c(=C\c2ccc(C(=O)OC)cc2)c(=O)n1CC(=O)Nc1ccccc1 | > 35 µM (inactive)
69 | CC(=O)OCCCNc1cc(Sc2nc3ccccc3s2)c2nonc2c1[N+](=O)[O-] | > 35 µM (inactive)
70 | CC(NC(=O)c1cc(F)c(F)c(F)c1F)c1ccc(-n2ccnc2)cc1 (centres undefined) | > 35 µM (inactive)
71 | CCCc1cc(=O)oc2cc(C)cc(OCC(=O)Nc3ccc(S(N)(=O)=O)cc3)c12 | > 35 µM (inactive)
72 | O=C(Cc1ccc(-n2cccc2)cc1)NC1CCCCC1 | > 35 µM (inactive)

Row | Compound | EC50
73 | O=C(NC1CCCCC1)C(c1ccc(F)cc1)N(CCc1ccccc1)C(=O)CN1C(=O)c2ccccc2S1(=O)=O (centres undefined) | 24.1 µM
74 | CC(C)CC(=O)Nc1ccc2c(c1)OCO2 | > 35 µM (inactive)
75 | CCCCNC(=O)c1ccc(Cn2c(=S)[nH]c3c([nH]c4ccc(OC)cc43)c2=O)cc1 | 5.24 µM
76 | CCOC(=O)CC1=C(C(=O)OCC)C2(C(=O)Nc3ccccc32)C(C#N)=C(N)O1 (centres undefined) | > 35 µM (inactive)
77 | CC(C)[C@H](NC(=O)[C@@H]1Cc2ccccc2CN1C(=O)OC(C)(C)C)C(=O)NC1CCCC1 | > 35 µM (inactive)
78 | CCS(=O)(=O)c1ncc(Cl)c(C(=O)Nc2ccc(C)cc2)n1 | > 35 µM (inactive)
79 | O=C(Cn1c(C(F)(F)F)nc2ccccc21)N=Nc1c(O)[nH]c2ccc(Br)cc12 | 27.4 µM
80 | CCN(CC)CCCNC(=S)N1CCC(c2nc3ccccc3[nH]2)CC1 | > 35 µM (inactive)
81 | O=C(CCCCl)NC(=S)Nc1ccc(CN2CCOCC2)cc1 | > 35 µM (inactive)
82 | COc1ccc(C(=O)NCc2nnc(SCC(=O)NCc3ccco3)o2)cc1OC | > 35 µM (inactive)
83 | CCCCNC(=S)N/N=C/c1ccc(OCC(=O)Nc2c(C)cc(C)cc2C)c(OC)c1 | > 35 µM (inactive)
84 | C[C@@]12C(=O)OC(=O)[C@]1(C)C1CCC2O1 | > 35 µM (inactive)
85 | CCOC(=O)C(C(=O)OCC)c1cc(Br)c2noc3c2c1C(=O)c1ccccc1-3 | > 35 µM (inactive)
86 | CCOc1ccc(NC(=S)NC(=O)/C=C/c2ccc(C)cc2)c([N+](=O)[O-])c1 | 31.5 µM
87 | C[C@]12CC[C@H](O)C[C@H]1CC[C@@H]1[C@@H]2CC[C@]2(C)[C@@H](C3=CC(=O)OC3)CC[C@]12O | > 35 µM (inactive)
88 | COc1ccc(NS(=O)(=O)c2cccc(C(=O)OCC(=O)c3c(N)n(C)c(=O)n(C)c3=O)c2)cc1 | > 35 µM (inactive)
89 | CC(C)(C)C1=CC=C(C(C)(C)C)C(=O)C1=O | > 35 µM (inactive)
90 | COC(=O)C(CO)Nc1ncnc2onc(-c3ccc(F)cc3)c12 (centres undefined) | > 35 µM (inactive)
91 | CCCn1c(=N)n(CCOc2ccc(OC)cc2)c2ccccc21 | > 35 µM (inactive)
92 | NC(=S)NNC(=O)/C(=C/c1ccc(Br)cc1)NC(=O)c1ccccc1 | > 35 µM (inactive)
93 | O=C(Nc1ccc([N+](=O)[O-])cc1)C(Cc1ccccc1)N1C(=O)c2cccc3cccc(c23)C1=O (centres undefined) | > 35 µM (inactive)
94 | O=C(c1ccccc1)c1n[nH]c(-c2ccccc2)cc1=O | > 35 µM (inactive)
